Assay results from patent EP2987533B1, “7-substituted piperazin-1-yl fluoroquinolone compounds, their use in the treatment of cancer, pharmaceutical compositions and a method for preparation” (priority 2014, dated 2016).

Key:
Type in all cases: cell-based
HS 578T [1] = experiment: NCI one-dose SRB growth assay; details: Homo sapiens; HS 578T (Breast Cancer), 10^-5 M, 48 h; read-out: % Growth Inhibition (GI %)
HS 578T [2] = experiment: NCI five-dose SRB growth assay; details: Homo sapiens; HS 578T (Breast Cancer), 48 h
HOP-62 = experiment: NCI five-dose SRB growth assay; details: Homo sapiens; HOP-62 (Non-Small Cell Lung Cancer), 48 h
SNB-75 = experiment: NCI five-dose SRB growth assay; details: Homo sapiens; SNB-75 (CNS Cancer), 48 h
MDA-MB-231/ATCC = experiment: NCI five-dose SRB growth assay; details: Homo sapiens; MDA-MB-231/ATCC (Breast Cancer), 48 h
KM12 = experiment: NCI five-dose SRB growth assay; details: Homo sapiens; KM12 (Colon Cancer), 48 h
UO-31 = experiment: NCI five-dose SRB growth assay; details: Homo sapiens; UO-31 (Renal Cancer), 48 h

Structure (SMILES)	inhibition at 10 µM (HS 578T [1]) [%]	GI50 (HS 578T [2]) [nM]	GI50 (HOP-62) [nM]	GI50 (SNB-75) [nM]	GI50 (MDA-MB-231/ATCC) [nM]	GI50 (KM12) [nM]	GI50 (UO-31) [nM]
CCn1cc(C(=O)O)c(=O)c2cc(F)c(N3CCN(S(=O)(=O)c4ccc(Cl)cc4)CC3)cc21 [Compound 1a]	81.1	4520	4470	2600	2510	4070	2070
CCn1cc(C(=O)O)c(=O)c2cc(F)c(N3CCN(S(=O)(=O)c4ccc(Cl)cc4Cl)CC3)cc21 [Compound 2a]		2530	3080		1880	3420	2200
O=C(O)c1cn(C2CC2)c2cc(N3CCN(S(=O)(=O)c4ccc(Cl)c(Cl)c4)CC3)c(F)cc2c1=O [Compound 3b]		4260	4770		2140	3620	2580
O=c1[nH]cc(F)c(=O)[nH]1 [Compound 5-FU, 5-fluorouracil, reference compound]	> 100						
Cc1cc(C)c(S(=O)(=O)N2CCN(c3cc4c(cc3F)c(=O)c(C(=O)O)cn4C3CC3)CC2)c(C)c1 [Compound 6b]		2400	3650	2230	2030	3380	1960
CCn1cc(C(=O)O)c(=O)c2cc(F)c(N3CCN(S(=O)(=O)c4cccc5ccccc45)CC3)cc21 [Compound 7a]		2680	4600	1890	1910	2960	2210
